Biological target: T1, human PCaR (Homo sapiens, UniProt P41180)
T1 construct: expressed in transfected cells; host or cells: CCL39 fibroblasts (stably transfected)
T1 sequence (P41180 20-1078): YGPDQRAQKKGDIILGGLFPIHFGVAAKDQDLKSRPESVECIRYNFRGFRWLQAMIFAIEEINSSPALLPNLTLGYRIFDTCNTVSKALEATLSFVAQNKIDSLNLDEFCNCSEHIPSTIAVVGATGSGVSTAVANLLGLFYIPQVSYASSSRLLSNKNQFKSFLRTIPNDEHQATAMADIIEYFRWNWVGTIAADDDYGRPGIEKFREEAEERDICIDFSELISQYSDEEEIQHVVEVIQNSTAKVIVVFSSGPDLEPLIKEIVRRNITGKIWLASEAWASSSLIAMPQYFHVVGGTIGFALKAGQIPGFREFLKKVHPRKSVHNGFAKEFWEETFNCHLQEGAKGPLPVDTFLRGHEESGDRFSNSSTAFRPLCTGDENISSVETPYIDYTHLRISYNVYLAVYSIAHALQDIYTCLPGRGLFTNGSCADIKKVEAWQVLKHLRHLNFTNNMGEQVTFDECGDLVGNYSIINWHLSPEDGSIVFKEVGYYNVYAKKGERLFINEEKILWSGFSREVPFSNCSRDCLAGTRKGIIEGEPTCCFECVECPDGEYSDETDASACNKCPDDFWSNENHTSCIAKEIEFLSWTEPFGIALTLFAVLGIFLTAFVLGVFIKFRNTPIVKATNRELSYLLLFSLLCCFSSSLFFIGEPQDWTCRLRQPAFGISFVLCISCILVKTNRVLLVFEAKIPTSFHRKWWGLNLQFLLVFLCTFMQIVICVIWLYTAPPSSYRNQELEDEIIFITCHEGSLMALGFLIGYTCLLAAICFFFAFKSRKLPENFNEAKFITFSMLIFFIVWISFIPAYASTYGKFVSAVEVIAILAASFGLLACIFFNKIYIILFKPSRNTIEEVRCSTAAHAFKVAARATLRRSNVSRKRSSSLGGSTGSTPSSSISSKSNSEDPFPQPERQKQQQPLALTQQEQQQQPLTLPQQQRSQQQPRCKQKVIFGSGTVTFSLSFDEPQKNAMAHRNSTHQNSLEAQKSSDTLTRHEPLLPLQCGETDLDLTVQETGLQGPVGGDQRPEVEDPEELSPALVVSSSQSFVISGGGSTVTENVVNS
Assay: Assay for intracellular free calcium (inhibition of calcium transients stimulated by extracellular calcium)
Format: cell-based
Settings: CCL39 fibroblasts stably transfected with human PCaR; "based on the above described assay"
Protocol: An alternative method to determine antagonism at the PCaR consists in measuring the inhibition of intracellular calcium transients stimulated by extracellular calcium. CCL39 fibroblasts stably transfected with human PCaR are seeded at 40′000 cells/well into 96-well Viewplates and incubated for 24 hours. Medium is then removed and replaced with fresh medium containing 2 μM Fluo-3 AM (Molecular Probes, Leiden, The Netherlands), In routine experiments, cells are incubated at 37° C., 5% CO2 for 1 h. Afterwards, plates are washed twice with mHBS and wells are refilled with 100 μl mHBS containing the test compounds. Incubation is continued at room temperature for 15 minutes. To record changes of intracellular free calcium, plates are transferred to fluorescence-imaging plate reader (Molecular Devices, Sunnyvale, Calif., USA). A baseline consisting in 5 measurements of 0.4 seconds each (laser excitation 488 nm) is recorded. Cells are then stimulated with calcium (2.5 mM final), and fluorescence changes recorded over a period of 3 minutes.

Row | IC50 | SMILES
1 | 3.4 nM | COCCn1c(-c2ccc(C(C)C)cc2)nc2c(Br)c(Cc3cccnc3SC)cc(OC)c21 [Example 1, 4-Bromo-2-(4-isopropyl-phenyl)-7-methoxy-1-(2-methoxy-ethyl)-5-(2-methylsulfanyl-pyridin-3-ylmethyl)-1H-benzoimidazole]
2 | 1.8 nM | C#CCOc1ncccc1Cc1cc(OC)c2c(nc(-c3ccc(C(C)C)cc3)n2CCOC)c1C(F)(F)F [Example 9, 2-(4-Isopropyl-phenyl)-7-methoxy-1-(2-methoxy-ethyl)-5-(2-prop-2-ynyloxy-pyridin-3-ylmethyl)-4-trifluoromethyl-1H-benzoimidazole]
3 | 2.6 nM | COCCn1c(-c2ccc(C(C)C)cc2)nc2c(C(F)(F)F)c(Cc3cccnc3[S+](C)[O-])cc(OC)c21 (stereo not shown) [Example 3, 2-(4-Isopropyl-phenyl)-5-(2-methanesulfinyl-pyridin-3-ylmethyl)-7-methoxy-1-(2-methoxy-ethyl)-4-trifluoromethyl-1H-benzoimidazole]
4 | 3.2 nM | COCCn1c(-c2ccc(C(C)C)cc2)nc2c(C(F)(F)F)c(Cc3cccnc3OC(C)C)cc(OC)c21 [Example 8, 5-(2-Isopropoxy-pyridin-3-ylmethyl)-2-(4-Isopropyl-phenyl)-7-methoxy-1-(2-methoxy-ethyl)-4-trifluoromethyl-1H-benzoimidazole]

— patent US20100227889A1, “Benzimidazole Derivatives” (priority 2006, published 2010)
